Measured values published in patent US9182397B2, “Immunoassay for detecting antibiotics” (DSM IP ASSETS B.V., priority 2011, dated 2015).

Experiments:
Design in all cases: key: 0: no intensity; 1: low intensity; 2: medium intensity; 3: high intensity
[1] = test system: Penicillin binding protein purified from Bacillus stearothermophilus; assay: Detection of Penicillin G, test done at different temperatures (Example 29)
Description: (§1) A nitrocellulose HF90 membrane (Millipore; length 25 mm) was used as a detection region. The membrane was glued to a polystyrene laminated card (thickness 0.254 mm) 8 mm from the proximal end of the card. Next, the detection zone and control zone were applied onto the nitrocellulose membrane. The detection zone was applied by dispensing 1 mg/ml of a 7ACA-spacer-BSA conjugate in 20 mM KPO4-buffer (pH 7.5) with a Biodot Dispense workstation XYZ 3050 with frontline at 0.2 μl/cm. The control zone was applied by dispensing 0.15 mg/ml of an anti-IgY antibody in 20 mM KPO4-buffer (pH 7.5) comprising 0.675 mg/ml BSA, 5% w/v saccharose and 20 mM NaCl with a Biodot Dispense workstation XYZ 3050 with frontline at 0.8 μl/cm. After drying of the zones, the nitrocellulose membrane was blocked by spraying a solution comprising 10 mM Tris buffer (pH 8) comprising 2% w/v BSA and 0.05% w/v Tween-20 using a Biodot Dispense workstation XYZ 3050 with airjet 3×. The solution was sprayed onto the membrane at a distance of 2 mm below the detection zone. Thereafter, the sample receiving region (VF2 membrane from Millipore; length 1 cm) was glued at the proximal end of the card overlapping 2 mm with the nitrocellulose membrane. The absorbing region (10038 membrane from Millipore; length 20 mm) was glued at the distal end of the card with an overlap of 2 mm on the nitrocellulose membrane. The obtained cards were dried at 37° C. in a dry atmosphere (0% relative humidity). The card was cut in strips of 5.2 mm width and kept at a dry atmosphere (0% relative humidity).
(§2) Streptavidin-coated gold particles were synthesized by reacting colloidal gold (diameter 40 nm; 1 OD/ml) with 10 μg/ml streptavidin. Next, the obtained solution was concentrated by tangential flow filtration, washed and stored in a Tris buffer (pH 8) including NaCN. Penicillin binding protein purified from Bacillus stearothermophilus was biotinylated (1:4) with D-biotinyl-epsilon-aminocaproic acid-N-hydroxysuccinimide ester. Next, the penicillin binding protein-gold conjugate was synthesized by reacting 1.5 μg biotinylated penicillin binding protein with 1 OD streptavidin-coated gold particles for 1 hour, followed by centrifugation at 10,000×g for 5 minutes and resuspension of the obtained pellet in 45 mM bicarbonate buffer comprising 0.1% w/v Triton X-100 (pH 9.6).
(§3) Thereafter, 140-200 mOD of the penicillin binding protein-gold conjugate and 5-20 mOD of the IgY-gold conjugate was solubilized in 100 μl buffer (80 mM Tris buffer comprising 0.01% w/v Triton-X-100, 0.4% w/v BSA, 5% v/v glycerin and 2% w/v saccharose (pH 8.5)) and 0.75 μl of the solution was dispensed per tube and dried for 12 hours at 40° C. The obtained tubes were sealed.
(§4) 150 μl of spiked milk was added per tube containing the dried conjugates. The concentration of penicillin G in the added milk varied from 0 to 4 ng/g (tube 1: 0 ng/g; […]; tube 2: 2 ng/g; tube 3: 3 ng/g; and tube 4: 4 ng/g). The obtained liquid composition was incubated for 2 minutes at 64° C. in an incubator. A test device was put into the tube and incubated for 3 minutes at 64° C. in the incubator. The result was read by eye.
The test was done essentially as described in Example 3, with the proviso that the test was done at different temperatures (4° C., 20° C. or 31.5° C.).

[2] = test system: Penicillin binding protein purified from Bacillus stearothermophilus; assay: Detection of Penicillin G with milk having a different initial temperature (Example 30)
Description: as §1, §2, §3, §4
The test was done essentially as described in Example 3, with the proviso that the test was done with milk having an initial different temperature (0° C., 4° C., 20° C. or 45° C.). The milk was allowed to reach room temperature shortly before the test was done.

[3] = test system: Penicillin binding protein purified from Bacillus stearothermophilus; assay: Detection of Penicillin G in different dairy matrices (Example 24)
Description: as §1, §2, §3, §4
The test was done essentially as described in Example 3. Instead of raw milk, different dairy matrices were tested. All liquid matrices were measured as such and all powders were first dispersed in water. For milk powder 20 g was dispersed in 250 g distilled water and for whey powder 7.1 g was dispersed in 100 g distilled water.

[4] = test system: Penicillin binding protein purified from Bacillus stearothermophilus; assay: Detection of Penicillin G after storage of the test device at 4° C. (Example 25)
Description: as §1, §2, §3, §4
The test devices were produced as described above in Examples 1 and 2 and stored at 4° C. At different time periods after production, the test device was used to measure penicillin G. The test was done essentially as described in Example 3.

Measured: Intensity of detection zone

CC1(C)S[C@@H]2[C@H](NC(=O)Cc3ccccc3)C(=O)N2[C@H]1C(=O)O [Penicillin G]
2: [1]; Pen G 3 ppb, test done at temperature 4 ° C. | [1]; Pen G 3 ppb, test done at temperature 20 ° C. | [1]; Pen G 3 ppb, test done at temperature 31.5 ° C. | [2]; Pen G 3 ppb, initial milk temperature 0 ° C. | [2]; Pen G 3 ppb, initial milk temperature 4 ° C. | [2]; Pen G 3 ppb, initial milk temperature 20 ° C. | [2]; Pen G 3 ppb, initial milk temperature 45 ° C. | [3]; Pen G 3 ppb, Cocoa | [3]; Pen G 3 ppb, Cream 10% | [3]; Pen G 3 ppb, Cream 40% | [3]; Pen G 3 ppb, Frozen raw milk | [3]; Pen G 3 ppb, Low fat UHT milk | [3]; Pen G 3 ppb, Low fat processed milk | [3]; Pen G 3 ppb, Milk powder (20 g dispersed in 250 g distilled water) | [3]; Pen G 3 ppb, Pasteurized milk | [3]; Pen G 3 ppb, UHT milk | [3]; Pen G 3 ppb, Whey powder (7.1 g dispersed in 100 g distilled water) | [3]; Pen G 4 ppb, Cream 40% | [4]; Pen G 3 ppb, test device stored 0 weeks at 4° C. | [4]; Pen G 3 ppb, test device stored 4 weeks at 4° C. | [4]; Pen G 3 ppb, test device stored 7 weeks at 4° C. | [4]; Pen G 3 ppb, test device stored 15 weeks at 4° C. | [4]; Pen G 3 ppb, test device stored 18 weeks at 4° C. | [4]; Pen G 3 ppb, test device stored 26 weeks at 4° C.
0: [3]; Pen G 3 ppb, Whey pH 4.5 (0 ppb and control zone gave 0) | [3]; Pen G 4 ppb, Frozen raw buffalo milk (0 ppb gave 1) | [3]; Pen G 4 ppb, Frozen raw goat milk (0 ppb gave 1) | [3]; Pen G 4 ppb, Frozen raw sheep milk (0 ppb gave 1) | [3]; Pen G 4 ppb, Whey pH 4.5 (0 ppb and control zone gave 0)
1: [1]; Pen G 4 ppb, test done at temperature 4 ° C. | [1]; Pen G 4 ppb, test done at temperature 20 ° C. | [1]; Pen G 4 ppb, test done at temperature 31.5 ° C. | [2]; Pen G 4 ppb, initial milk temperature 0 ° C. | [2]; Pen G 4 ppb, initial milk temperature 4 ° C. | [2]; Pen G 4 ppb, initial milk temperature 20 ° C. | [2]; Pen G 4 ppb, initial milk temperature 45 ° C. | [3]; Pen G 3 ppb, Frozen raw buffalo milk (0 ppb gave 1) | [3]; Pen G 3 ppb, Frozen raw goat milk (0 ppb gave 1) | [3]; Pen G 3 ppb, Frozen raw sheep milk (0 ppb gave 1) | [3]; Pen G 4 ppb, Cocoa | [3]; Pen G 4 ppb, Cream 10% | [3]; Pen G 4 ppb, Frozen raw milk | [3]; Pen G 4 ppb, Low fat UHT milk | [3]; Pen G 4 ppb, Low fat processed milk | [3]; Pen G 4 ppb, Milk powder (20 g dispersed in 250 g distilled water) | [3]; Pen G 4 ppb, Pasteurized milk | [3]; Pen G 4 ppb, UHT milk | [3]; Pen G 4 ppb, Whey powder (7.1 g dispersed in 100 g distilled water) | [4]; Pen G 4 ppb, test device stored 0 weeks at 4° C. | [4]; Pen G 4 ppb, test device stored 4 weeks at 4° C. | [4]; Pen G 4 ppb, test device stored 7 weeks at 4° C. | [4]; Pen G 4 ppb, test device stored 15 weeks at 4° C. | [4]; Pen G 4 ppb, test device stored 18 weeks at 4° C. | [4]; Pen G 4 ppb, test device stored 26 weeks at 4° C.
